Reference: patent publication US6093732A, “4-hydroxyquinoline-3-carboxamides and hydrazides as antiviral agents” (Pharmacia & Upjohn Company, priority 1998, dated 2000)

Columns and labels:
Format in all cases: biochemical
[1] = target: HSV polymerase (Human herpesvirus 1, UniProt P04293); experiment: HSV polymerase assay (procedure similar to the HCMV polymerase SPA); conditions: Table 1, read-out: Antiviral Selective Polymerase IC50 Values, HSV
Protocol: (§1) The HCMV polymerase assay is performed using a scintillation proximity assay (SPA) as described in several references, such as N. D. Cook, et al., Pharmaceutical Manufacturing International, pages 49-53 (1992); K. Takeuchi, Laboratory Practice, September issue (1992); U.S. Pat. No. 4,568,649 (1986); which are incorporated by reference herein. Reactions are performed in 96-well plates. The assay is conducted in 100 μl volume with 5.4 mM HEPES (pH 7.5), 11.7 mM KCl, 4.5 mM MgCl2, 0.36 mg/ml BSA, and 90 nM ^3 H-dTTP. Assays are run with and without CHAPS, (3-[(3-Cholamidopropyl)-dimethylammonio]-1-propane-sulfonate) at a final concentration of 2 mM. HCMV polymerase is diluted in enzyme dilution buffer containing 50% glycerol, 250 mM NaCl, 10 mM HEPES (pH 7.5), 100 μg/ml BSA, and 0.01% sodium azide. The HCMV polymerase, which is expressed in recombinant baculovirus-infected SF-9 cells and purified according to literature procedures, is added at 10% (or 10 μl) of the final reaction volume, i.e., 100 μl. Compounds are diluted in 50% DMSO and 10 μl are added to each well. Control wells contain an equivalent concentration of DMSO. Unless noted otherwise, reactions are initiated via the addition of 6 nM biotinylated poly(dA)-oligo(dT) template/primer to reaction mixtures containing the enzyme, substrate, and compounds of interest. Plates are incubated in a 25° C. or 37° C. H2 O bath and terminated via the addition of 40 μl/reaction of 0.5 M EDTA (pH 8) per well. Reactions are terminated within the time-frame during which substrate incorporation is linear and varied depending upon the enzyme and conditions used, i.e., 30 min. for HCMV polymerase. Ten μl of streptavidin-SPA beads (20 mg/ml in PBS/10% glycerol) are added following termination of the reaction. Plates are incubated 10 min. at 37° C., then equilibrated to room temperature, and counted on a Packard Topcount. Linear regressions are performed and IC50 's are calculated using computer software.
(§2) A modified version of the above HCMV polymerase assay is performed as described above, but with the following changes: Compounds are diluted in 100% DMSO until final dilution into assay buffer. In the previous assay, compounds are diluted in 50% DMSO. 4.5 mM dithiotherotol (DTT) is added to the polymerase buffer. […] Other viral polymerase assays are performed using procedures similar to those described above.

[2] = target: VZV polymerase (Varicella-zoster virus, UniProt P09252); experiment: VZV polymerase assay (procedure similar to the HCMV polymerase SPA); conditions: Table 1, read-out: Antiviral Selective Polymerase IC50 Values, VZV
Chain of VZV polymerase (P09252 whole entry): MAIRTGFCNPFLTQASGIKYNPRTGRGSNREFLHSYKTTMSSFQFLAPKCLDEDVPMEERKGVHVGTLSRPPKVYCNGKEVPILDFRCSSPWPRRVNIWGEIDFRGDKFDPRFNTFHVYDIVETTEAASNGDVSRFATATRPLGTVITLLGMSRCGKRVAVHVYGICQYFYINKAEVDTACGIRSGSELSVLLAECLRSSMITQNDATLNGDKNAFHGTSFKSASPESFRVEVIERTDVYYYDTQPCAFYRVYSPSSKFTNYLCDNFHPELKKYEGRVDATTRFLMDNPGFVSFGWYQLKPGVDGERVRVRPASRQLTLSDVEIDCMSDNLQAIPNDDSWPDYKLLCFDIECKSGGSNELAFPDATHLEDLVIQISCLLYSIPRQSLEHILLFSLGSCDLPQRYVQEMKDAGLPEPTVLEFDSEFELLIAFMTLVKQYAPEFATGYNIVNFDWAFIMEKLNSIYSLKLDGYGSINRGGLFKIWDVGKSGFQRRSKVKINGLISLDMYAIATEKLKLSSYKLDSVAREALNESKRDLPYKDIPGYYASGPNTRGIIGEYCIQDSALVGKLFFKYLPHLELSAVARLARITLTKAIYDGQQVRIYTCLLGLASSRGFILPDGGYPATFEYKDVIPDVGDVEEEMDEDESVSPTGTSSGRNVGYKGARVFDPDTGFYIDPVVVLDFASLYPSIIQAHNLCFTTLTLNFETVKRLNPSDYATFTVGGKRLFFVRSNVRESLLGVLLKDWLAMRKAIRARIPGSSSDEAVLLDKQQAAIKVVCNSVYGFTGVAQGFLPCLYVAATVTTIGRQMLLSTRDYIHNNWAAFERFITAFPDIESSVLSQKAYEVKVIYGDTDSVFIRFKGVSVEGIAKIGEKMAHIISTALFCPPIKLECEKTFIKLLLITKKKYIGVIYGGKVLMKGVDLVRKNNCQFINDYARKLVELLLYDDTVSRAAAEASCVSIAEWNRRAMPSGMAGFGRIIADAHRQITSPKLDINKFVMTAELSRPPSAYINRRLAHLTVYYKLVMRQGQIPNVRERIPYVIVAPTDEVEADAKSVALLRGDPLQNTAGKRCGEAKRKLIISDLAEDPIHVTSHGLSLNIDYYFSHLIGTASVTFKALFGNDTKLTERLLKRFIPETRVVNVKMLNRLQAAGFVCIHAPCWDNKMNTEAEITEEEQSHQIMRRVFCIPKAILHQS
Protocol: as §1, §2

[3] = target: T1, HCMV polymerase (Human cytomegalovirus, UniProt P08546); experiment: HCMV polymerase scintillation proximity assay (SPA), modified version; conditions: CMV polymerase; Table 1; modified assay with 4.5 mM DTT, compounds in 100% DMSO; read-out: Antiviral Selective Polymerase IC50 Values, CMV
T1 construct: made in house; host or cells: recombinant baculovirus-infected SF-9 cells
T1 sequence (P08546 whole entry): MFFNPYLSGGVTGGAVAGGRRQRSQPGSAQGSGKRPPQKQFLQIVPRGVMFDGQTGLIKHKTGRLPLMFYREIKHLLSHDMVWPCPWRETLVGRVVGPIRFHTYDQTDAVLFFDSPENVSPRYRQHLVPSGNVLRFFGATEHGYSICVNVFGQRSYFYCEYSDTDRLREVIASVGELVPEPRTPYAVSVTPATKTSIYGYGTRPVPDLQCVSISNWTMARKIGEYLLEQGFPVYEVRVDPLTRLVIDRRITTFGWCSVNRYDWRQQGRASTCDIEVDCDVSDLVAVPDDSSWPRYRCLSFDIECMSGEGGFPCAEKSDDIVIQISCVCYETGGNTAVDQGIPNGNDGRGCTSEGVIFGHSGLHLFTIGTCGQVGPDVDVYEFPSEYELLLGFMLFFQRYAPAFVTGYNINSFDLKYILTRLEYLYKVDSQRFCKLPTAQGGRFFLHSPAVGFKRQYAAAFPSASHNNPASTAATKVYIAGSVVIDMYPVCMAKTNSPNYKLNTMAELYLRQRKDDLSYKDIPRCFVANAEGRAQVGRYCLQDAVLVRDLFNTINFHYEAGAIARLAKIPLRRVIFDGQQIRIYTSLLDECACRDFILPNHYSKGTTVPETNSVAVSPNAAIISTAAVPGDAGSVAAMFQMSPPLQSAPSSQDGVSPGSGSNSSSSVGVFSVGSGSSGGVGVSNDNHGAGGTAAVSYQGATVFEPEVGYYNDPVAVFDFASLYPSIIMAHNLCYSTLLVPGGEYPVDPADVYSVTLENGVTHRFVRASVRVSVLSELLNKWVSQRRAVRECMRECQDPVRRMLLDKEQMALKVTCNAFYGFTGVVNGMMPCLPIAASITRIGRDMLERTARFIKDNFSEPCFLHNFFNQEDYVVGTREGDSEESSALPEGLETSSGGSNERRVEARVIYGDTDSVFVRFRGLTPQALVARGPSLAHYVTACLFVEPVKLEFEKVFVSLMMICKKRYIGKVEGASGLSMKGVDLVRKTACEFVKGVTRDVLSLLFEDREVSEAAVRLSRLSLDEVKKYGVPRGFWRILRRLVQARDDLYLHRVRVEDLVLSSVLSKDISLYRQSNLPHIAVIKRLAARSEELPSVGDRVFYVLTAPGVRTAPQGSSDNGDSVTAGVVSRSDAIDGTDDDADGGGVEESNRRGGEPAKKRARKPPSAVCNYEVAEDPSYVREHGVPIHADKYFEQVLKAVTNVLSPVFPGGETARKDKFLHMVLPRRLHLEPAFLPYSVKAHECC
Procedure, shortened: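 Recombinant polymerase (baculovirus/SF-9) in 5.4 mM HEPES pH 7.5, 11.7 mM KCl, 4.5 mM MgCl2, 0.36 mg/ml BSA, 90 nM 3H-dTTP, ±2 mM CHAPS; started with 6 nM biotinylated poly(dA)-oligo(dT), 25° C or 37° C, EDTA-stopped in linear range (30 min for HCMV). Streptavidin-SPA read; IC50 by linear regression. Modified version: 100% DMSO compound dilution, 4.5 mM DTT added.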

Chain of HSV polymerase (P04293 whole entry): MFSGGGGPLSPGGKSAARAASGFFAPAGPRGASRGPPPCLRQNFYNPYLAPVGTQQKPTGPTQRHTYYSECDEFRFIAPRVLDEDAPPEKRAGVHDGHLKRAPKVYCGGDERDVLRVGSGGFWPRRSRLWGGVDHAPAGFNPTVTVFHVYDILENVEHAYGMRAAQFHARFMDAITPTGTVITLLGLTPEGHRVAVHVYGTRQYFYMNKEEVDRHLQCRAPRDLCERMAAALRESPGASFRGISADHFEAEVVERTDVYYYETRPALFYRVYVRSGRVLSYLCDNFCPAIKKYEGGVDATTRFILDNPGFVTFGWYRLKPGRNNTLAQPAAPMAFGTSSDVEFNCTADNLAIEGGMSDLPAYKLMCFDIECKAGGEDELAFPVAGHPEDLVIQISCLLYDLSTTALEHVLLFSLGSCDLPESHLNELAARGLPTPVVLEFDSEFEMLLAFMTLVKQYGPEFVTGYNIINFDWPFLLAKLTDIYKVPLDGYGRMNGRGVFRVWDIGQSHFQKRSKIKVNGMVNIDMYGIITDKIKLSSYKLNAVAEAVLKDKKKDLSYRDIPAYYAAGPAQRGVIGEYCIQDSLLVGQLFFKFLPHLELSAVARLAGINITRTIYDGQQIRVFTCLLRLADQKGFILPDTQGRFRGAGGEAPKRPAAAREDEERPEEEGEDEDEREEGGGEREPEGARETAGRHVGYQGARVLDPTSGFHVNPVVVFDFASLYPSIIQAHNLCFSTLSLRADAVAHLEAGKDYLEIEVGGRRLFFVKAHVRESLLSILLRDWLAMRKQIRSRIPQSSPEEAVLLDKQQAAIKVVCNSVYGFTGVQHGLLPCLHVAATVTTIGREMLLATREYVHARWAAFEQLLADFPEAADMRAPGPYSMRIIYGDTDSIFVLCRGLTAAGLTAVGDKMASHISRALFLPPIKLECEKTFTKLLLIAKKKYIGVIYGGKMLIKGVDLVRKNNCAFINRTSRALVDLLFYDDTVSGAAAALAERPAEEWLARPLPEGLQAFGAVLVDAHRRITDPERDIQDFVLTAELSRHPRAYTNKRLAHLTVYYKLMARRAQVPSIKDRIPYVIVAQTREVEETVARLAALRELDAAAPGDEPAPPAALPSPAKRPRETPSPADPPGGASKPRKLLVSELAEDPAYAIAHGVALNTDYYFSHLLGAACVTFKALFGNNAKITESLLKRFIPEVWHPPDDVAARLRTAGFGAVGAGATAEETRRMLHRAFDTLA

| IC50 [1] | IC50 [2] | IC50 [3] | SMILES |
| --- | --- | --- | --- |
| 730 nM | 570 nM | 1500 nM | COCC#Cc1cc(OC)c2ncc(C(=O)NCc3ccc(Cl)cc3)c(O)c2c1 [Example 119, N-(4-Chlorobenzyl)-4-hydroxy-8-methoxy-6-(3-methoxy-1-propynyl)-3-quinolinecarboxamide] |
| 250 nM | 80 nM | 270 nM | COc1cc(CCCO)cc2c(O)c(C(=O)NCc3ccc(Cl)cc3)cnc12 [Example 120, N-(4-Chlorobenzyl)-4-hydroxy-6-(3-hydroxypropyl)-8-methoxy-3-quinolinecarboxamide] |
| 600 nM | 390 nM | 250 nM | O=C(NCc1ccc(Cl)cc1)c1cnc2c(OCCO)cc(CCCO)cc2c1O [Example 124, N-(4-Chlorobenzyl)-4-hydroxy-8-(2-hydroxyethoxy)-6-(3-hydroxypropyl)-3-quinolinecarboxamide] |
| 2500 nM | 1700 nM | 870 nM | CC(C)(CCO)c1ccc2ncc(C(=O)NCc3ccc(Cl)cc3)c(O)c2c1 [Example 125, N-(4-Chlorobenzyl)-4-hydroxy-6-(3-hydroxy-1,1-dimethylpropyl)-3-quinolinecarboxamide] |
| 3200 nM | 2200 nM | 4000 nM | N#C/C=C/c1cc(F)c2ncc(C(=O)NCc3ccc(Cl)cc3)c(O)c2c1 [Example 133, N-(4-Chlorobenzyl)-6-[(E)-2-cyanoethenyl]-8-fluoro-4-hydroxy-3-quinolinecarboxamide] |
| 720 nM | 190 nM | 900 nM | O=C(NCc1ccc(Cl)cc1)c1cnc2ccc(C#CCO)cc2c1O [Example 134, N-(4-Chlorobenzyl)-4-hydroxy-6-(3-hydroxy-1-propynyl)-3-quinolinecarboxamide] |
| 700 nM | 390 nM | 680 nM | O=C(NCc1ccc(Cl)cc1)c1c[nH]c2ccc(/C=C/CO)cc2c1=O [Example 136, N-[(4-Chlorophenyl)methyl]-1,4-dihydro-6-[(1E)-3-hydroxy-1-propenyl]-4-oxo-3-quinolinecarboxamide] |
| 3500 nM | 2000 nM | 4700 nM | N#CCCc1cc(F)c2ncc(C(=O)NCc3ccc(Cl)cc3)c(O)c2c1 [Example 138, N-(4-Chlorobenzyl)-6-(2-cyanoethyl)-8-fluoro-4-hydroxy-3-quinolinecarboxamide] |
| 1700 nM | 1000 nM | 1400 nM | O=C(NCc1ccc(Cl)cc1)c1cnc2cc(CCCCO)ccc2c1O [Example 140, N-(4-Chlorobenzyl)-4-hydroxy-7-(4-hydroxybutyl)-3-quinolinecarboxamide] |
| 2900 nM | 2100 nM | 3800 nM | CS(=O)(=O)OCCCc1cc(F)c2ncc(C(=O)NCc3ccc(Cl)cc3)c(O)c2c1 [Example 142, 3-(3-([(4-Chlorobenzyl)amino]carbonyl}-8-fluoro-4-hydroxy-6-quinolinyl)propyl methanesulfonate] |
| 280 nM | 70 nM | 280 nM | O=C(NCc1ccc(Cl)cc1)c1cnc2ccc(CCCO)cc2c1O [Example 144, N-(4-Chlorobenzyl)-4-hydroxy-6-(3-hydroxypropyl)-3-quinolinecarboxamide] |
| 3500 nM | 2500 nM | 2900 nM | O=C(CBr)OCCCc1cc(F)c2ncc(C(=O)NCc3ccc(Cl)cc3)c(O)c2c1 [Example 145, 3-(3-{[(4-Chlorobenzyl)amino]carbonyl}-8-fluoro-4-hydroxy-6-quinolinyl)propyl 2-bromoacetate] |
| 1400 nM | 1000 nM | 2400 nM | CN(C)CC(=O)OCCCc1cc(F)c2ncc(C(=O)NCc3ccc(Cl)cc3)c(O)c2c1 [Example 148, 3-(3-{[(4-Chlorobenzyl)amino]carbonyl}-8-fluoro-4-hydroxy-6-quinolinyl)propyl 2-(dimethylamino)acetate] |
| 1800 nM | 890 nM | 920 nM | CC(O)CCc1ccc2ncc(C(=O)NCc3ccc(Cl)cc3)c(O)c2c1 (stereo not drawn) [Example 157, N-(4-Chlorobenzyl)-4-hydroxy-6-(3-hydroxybutyl)-3-quinolinecarboxamide] |
| 8400 nM | 4100 nM | 10000 nM | O=C(NCc1ccc(Cl)cc1)c1cnc2c(F)cc(F)c(F)c2c1O [Example 168, N-[(4-Chlorophenyl)methyl]-5,6,8-trifluoro-4-hydroxy-3-quinolinecarboxamide] |
| 800 nM | 640 nM | 150 nM | O=C(NCc1ccc(Cl)cc1)c1cnc2ccc(-c3cccs3)cc2c1O [Example 178, N-(4-Chlorobenzyl)-4-hydroxy-6-(2-thienyl)-3-quinolinecarboxamide] |
| 1400 nM | 660 nM | 1800 nM | O=C(NCc1ccc(Cl)cc1)c1cnc2ccc(OCCO)cc2c1O [Example 179, N-(4-Chlorobenzyl)-4-hydroxy-6-(2-hydroxyethoxy)-3-quinolinecarboxamide] |
| 630 nM | 640 nM | 500 nM | O=C(NCc1ccc(Cl)cc1)c1cnc2ccc(CN3CCOCC3)cc2c1O [Example 191, N-(4-Chlorobenzyl)-4-hydroxy-6-(4-morpholinylmethyl)-3-quinolinecarboxamide] |
